The text below walks through data of ChEMBL document CHEMBL1136066, “Non-covalent thrombin inhibitors featuring P(3)-heterocycles with P(1)-monocyclic arginine surrogates” (Bioorg Med Chem Lett, 2002).

The target of experiment [1] is T1, Coagulation factor X (Homo sapiens, UniProt P00742).
Experiment [2] concerns the target T2, Serine protease 1 (Homo sapiens, UniProt P07477).
The target of experiment [3] is Prothrombin (Homo sapiens, UniProt P00734). Nature of the experiment: In vitro inhibitory constant against human thrombin (FIIa).
Experiment [4] addresses T2, Serine protease 1. This is another data set of the same source.
The target of experiment [5] is T1, Coagulation factor X. The source holds these as a separate data set.

Bounds are passed on as bounds.

What is called Ki is a measure of affinity in units of concentration, obtained from inhibition or displacement. A low value points to a stronger hold on the target.

T2 sequence (P07477 whole entry): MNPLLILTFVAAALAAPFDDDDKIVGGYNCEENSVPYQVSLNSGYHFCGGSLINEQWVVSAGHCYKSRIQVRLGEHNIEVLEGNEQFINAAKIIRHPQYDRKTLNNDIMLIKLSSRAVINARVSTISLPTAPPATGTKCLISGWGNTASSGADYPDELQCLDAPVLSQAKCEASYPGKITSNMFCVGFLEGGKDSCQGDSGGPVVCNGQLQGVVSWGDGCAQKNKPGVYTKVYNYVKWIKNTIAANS
T1 sequence (P00742 41-179 limits assumed): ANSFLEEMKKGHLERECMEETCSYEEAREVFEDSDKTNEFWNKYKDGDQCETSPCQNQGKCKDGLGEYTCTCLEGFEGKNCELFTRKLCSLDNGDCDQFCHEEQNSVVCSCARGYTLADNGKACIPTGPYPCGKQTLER
T1 sequence (P00742 235-488 limits assumed): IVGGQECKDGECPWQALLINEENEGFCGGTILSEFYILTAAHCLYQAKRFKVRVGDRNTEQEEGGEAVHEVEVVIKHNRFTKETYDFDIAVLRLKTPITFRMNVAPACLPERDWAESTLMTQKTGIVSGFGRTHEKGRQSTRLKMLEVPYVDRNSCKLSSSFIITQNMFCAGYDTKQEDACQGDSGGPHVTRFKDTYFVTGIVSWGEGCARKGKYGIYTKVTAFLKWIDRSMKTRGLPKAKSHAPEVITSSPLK

Consider `Cc1cnc(NCCc2ccccc2)c(=O)n1CC(=O)NCc1cnc(N)cn1`, for which the inhibition constant Ki result in experiment [1] and in experiment [2] was “Not Active” in each case.
On to `Cc1cnc(NCCc2ccccc2)c(=O)n1CC(=O)NCc1ccc(C(=N)NO)s1`, for which the results for the Ki result in experiment [1], in experiment [3] and in experiment [2] were “Not Active”, 30.8 nM and “Not Active”, respectively.
Turning to `COc1cccc(S(=O)(=O)Nc2cccn(CC(=O)NCc3ccc(C(=N)N)cc3OC)c2=O)c1`, the Ki in experiment [3] came out at 1.6 nM; in experiment [4], 11.9 nM; in experiment [5], 76.8 nM.
For `Cc1cnc(NCCc2ccccc2)c(=O)n1CC(=O)NCc1cnc(N)nc1`, the Ki result is “Not Active” in experiment [1], 357 nM in experiment [3] and “Not Active” in experiment [2].
With `COc1cccc(S(=O)(=O)Nc2cccn(CC(=O)NCc3nc(C(=N)N)cs3)c2=O)c1`, the Ki was 5.9 nM in experiment [3], > 168 nM in experiment [4] and 179 nM in experiment [5].
As to `Cc1ccc(NS(=O)(=O)Cc2ccccc2)c(=O)n1CC(=O)NCc1ccc(C(=N)N)c(F)c1`, the inhibition constant Ki result in experiment [1] was “Not Active”; in experiment [3], 3.6 nM; in experiment [2], “Not Active”.
With `Cc1cnc(NCC(F)(F)c2ccccc2)c(=O)n1CC(=O)NCc1cnc(N)cn1`, the inhibition constant (Ki) result in experiment [1] was “Not Active”; in experiment [3] it was 9.8 nM; in experiment [2], “Not Active”.
As to `Cc1cnc(NCCc2ccccc2)c(=O)n1CC(=O)NCc1ccc(C(=N)N)s1`, the values for the inhibition constant (Ki) entry in experiment [1], in experiment [3] and in experiment [4] were “Not Active”, 0.12 nM and 4.4 nM, respectively.
On to `Cc1nc(N)ncc1CNC(=O)Cn1c(C)cnc(NCC(F)(F)c2ccccc2)c1=O`, for which the inhibitory constant (Ki) entry in experiment [1] is “Not Active”; in experiment [3], 141 nM; in experiment [2], “Not Active”.
With `COc1cccc(S(=O)(=O)Nc2cccn(CC(=O)NCc3ccc(C(=N)N)cc3F)c2=O)c1`, the inhibition constant Ki in experiment [3] was found to be 6 nM; in experiment [4] it was 31.3 nM; in experiment [5] it was 249 nM.
For `Cc1cnc(NCCc2ccccc2)c(=O)n1CC(=O)NCc1ccc(C(=N)N)cc1`, the Ki result in experiment [1] is “Not Active”; in experiment [4], 19.7 nM.
As to `Cc1ccc(NS(=O)(=O)Cc2ccccc2)c(=O)n1CC(=O)NC[C@@H]1CNC(N)=N[C@@H]1C`, the Ki entry in experiment [1] is “Not Active”; in experiment [3] it was 1.1 nM; in experiment [2], “Not Active”.
Consider `Cc1cnc(NCC2(c3ccc(Cl)cc3)CCC2)c(=O)n1CC(=O)NCc1cnc(N)cn1`, for which the figures for the Ki result in experiment [1], in experiment [3] and in experiment [2] were “Not Active”, 5.5 nM and “Not Active”, respectively.
Consider `COc1cccc(S(=O)(=O)Nc2cccn(CC(=O)NCc3ccc(C(=N)N)cc3Cl)c2=O)c1`, for which the Ki in experiment [3] was found to be 20.8 nM; in experiment [4], 76.5 nM.
Regarding `COc1cccc(S(=O)(=O)Nc2cccn(CC(=O)NCc3ccc(C(=N)N)cc3)c2=O)c1`, the values for the Ki in experiment [3], in experiment [4] and in experiment [5] were 5.3 nM, 18.7 nM and 153 nM, respectively.
As to `Cc1cnc(NCCc2ccccc2)c(=O)n1CC(=O)NCc1ccc(C(=N)NO[Si](C)(C)C(C)(C)C)s1`, the inhibitory constant (Ki) result was “Not Active” in experiment [1], 13.2 nM in experiment [3] and “Not Active” in experiment [2].
Take `Cc1ccc(NS(=O)(=O)Cc2ccccc2)c(=O)n1CC(=O)NCC1CN=C(N)NC1` (stereo unspecified): the inhibition constant (Ki) entry is “Not Active” in experiment [1], 1 nM in experiment [3] and “Not Active” in experiment [2].
As to `Cc1nc(N)ncc1CNC(=O)Cn1c(C)cnc(NCCc2ccccc2)c1=O`, the figures for the Ki entry in experiment [1], in experiment [3] and in experiment [2] were “Not Active”, 197 nM and “Not Active”, respectively.
`Cc1ccc(NS(=O)(=O)Cc2ccccc2F)c(=O)n1CC(=O)N[C@H](CCCNC(=N)N)C(=O)O` [CVS-2359]: the values for the Ki in experiment [3], in experiment [4] and in experiment [5] were 0.14 nM, 12.4 nM and 674 nM, respectively.
With `Cc1nc(N)ccc1CNC(=O)Cn1c(C)ccc(NS(=O)(=O)Cc2ccccc2)c1=O` [L-374087], the figures for the inhibition constant (Ki) in experiment [3] and in experiment [2] were 0.68 nM and “Not Active”, respectively.
For `Cc1nc(N)ccc1CNC(=O)Cn1c(C)cnc(NCCc2ccccc2)c1=O` [L-375378] the same measures were 1 nM and “Not Active”.
For the compound `Cc1nc(N)ncc1CNC(=O)Cn1c(C)cnc(NCCc2ccc3c(c2)CCO3)c1=O`, the Ki entry in experiment [1] is “Not Active”; in experiment [3] it was 324 nM; in experiment [2] it was “Not Active”.
Take `Cc1nc(N)ncc1CNC(=O)Cn1c(C)ccc(NS(=O)(=O)Cc2cccc3c2OCCO3)c1=O`: the inhibitory constant (Ki) entry in experiment [1] and in experiment [2] was “Not Active” each time.
In the case of `Cc1ccc(NS(=O)(=O)Cc2ccccc2)c(=O)n1CC(=O)NCc1ccc(C(=N)N)cc1`, the figures for the Ki result in experiment [1], in experiment [3] and in experiment [4] were “Not Active”, 0.37 nM and 49.3 nM, respectively.
With `Cc1cnc(NCCc2ccccc2)c(=O)n1CC(=O)NCC1CN=C(N)NC1` (stereo unspecified), the Ki result in experiment [1] is “Not Active”; in experiment [3], 1.9 nM; in experiment [2] it was “Not Active”.
In the case of `Cc1ccc(NS(=O)(=O)Cc2ccccc2)c(=O)n1CC(=O)NCc1cnc(N)nc1`, the Ki result in experiment [1] was “Not Active”; in experiment [3] it was 462 nM; in experiment [2], “Not Active”.
On to `Cc1cnc(NCC(F)(F)c2ccc(F)cc2)c(=O)n1CC(=O)NCc1cnc(N)cn1`, for which the Ki result was “Not Active” in experiment [1], 5.9 nM in experiment [3] and “Not Active” in experiment [2].
Take `Cc1ccc(NS(=O)(=O)Cc2ccccc2)c(=O)n1CC(=O)NCc1nc(CN)cs1`: the Ki in experiment [3] is 136 nM; in experiment [4] it was > 168 nM; in experiment [5], > 338 nM.
As to `Cc1cnc(NCCc2ccccc2)c(=O)n1CC(=O)NC[C@@H]1CNC(N)=N[C@@H]1C`, the inhibitory constant (Ki) result was “Not Active” in experiment [1], 3.2 nM in experiment [3] and “Not Active” in experiment [2].
On to `COC(=O)c1ccc(F)cc1CS(=O)(=O)Nc1ccc(C)n(CC(=O)N[C@H](CCCN=C(N)N)C(=O)O)c1=O`, for which the values for the Ki in experiment [3], in experiment [4] and in experiment [5] were 0.1 nM, 16.6 nM and 1810 nM, respectively.
With `Cc1ccc(NS(=O)(=O)Cc2ccccc2)c(=O)n1CC(=O)NCc1cnc(N)cn1`, the values for the Ki result in experiment [1], in experiment [3] and in experiment [2] were “Not Active”, 158 nM and “Not Active”, respectively.
Turning to `Cc1ccc(NS(=O)(=O)Cc2ccccc2)c(=O)n1CC(=O)NCc1ccc(C(=N)N)s1`, the inhibition constant (Ki) came to 0.1 nM in experiment [3], 13.6 nM in experiment [4] and 96.4 nM in experiment [5].
For `Cc1nc(N)nc(C)c1CNC(=O)Cn1c(C)ccc(NS(=O)(=O)Cc2ccccc2)c1=O`, the Ki entry in experiment [1] was “Not Active”; in experiment [3], 281 nM; in experiment [2] it was “Not Active”.
For the compound `Cc1nc(N)ncc1CNC(=O)Cn1c(C)ccc(NS(=O)(=O)Cc2ccccc2)c1=O`, the Ki result is “Not Active” in experiment [1], 85.2 nM in experiment [3] and “Not Active” in experiment [2].
